Results taken from the supplement of paper PMC10307832.

Legend:
Experiment in all cases: relative viability (nuclei count vs DMSO), 5 days (fraction); higher = more cells survive
A-427 = tested on: A-427
Procedure, shortened: (§1)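 Each reported value is a median over duplicate plates. It expresses relative viability: treated-well nuclei count divided by vehicle-well nuclei count. Lung cancer cell lines in 1536-well plates were dosed by pin tool a day after seeding, alone with one drug or with a fixed anchor-drug dose plus five library-drug doses (not always all listed) in √10 steps, and nuclei were counted after 5 days.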

ABC-1 = tested on: ABC-1
Procedure, shortened: as §1

COR-L23 = tested on: COR-L23
Procedure, shortened: as §1

ChaGo-K-1 = tested on: ChaGo-K-1
Procedure, shortened: as §1

EMC-BAC-2 = tested on: EMC-BAC-2
Procedure, shortened: as §1

HARA = tested on: HARA
Procedure, shortened: as §1

HCC-15 = tested on: HCC-15
Procedure, shortened: as §1

HCC-366 = tested on: HCC-366
Procedure, shortened: as §1

HCC-78 = tested on: HCC-78
Procedure, shortened: as §1

LC-2-ad = tested on: LC-2-ad
Procedure, shortened: as §1

NCI-H1650 = tested on: NCI-H1650
Procedure, shortened: as §1

NCI-H1734 = tested on: NCI-H1734
Procedure, shortened: as §1

NCI-H1993 = tested on: NCI-H1993
Procedure, shortened: as §1

NCI-H2009 = tested on: NCI-H2009
Procedure, shortened: as §1

NCI-H2023 = tested on: NCI-H2023
Procedure, shortened: as §1

NCI-H2228 = tested on: NCI-H2228
Procedure, shortened: as §1

NCI-H23 = tested on: NCI-H23
Procedure, shortened: as §1

NCI-H2405 = tested on: NCI-H2405
Procedure, shortened: as §1

NCI-H838 = tested on: NCI-H838
Procedure, shortened: as §1

SK-LU-1 = tested on: SK-LU-1
Procedure, shortened: as §1

UMC-11 = tested on: UMC-11
Procedure, shortened: as §1

Compound: C[C@@H]1CN(CC(=O)Nc2ccc3c(c2)Cc2cccc(-c4cc(=O)cc(N5CCOCC5)o4)c2S3)C[C@H](C)O1 + CC(C)C[C@H](NC(=O)[C@H](Cc1ccccc1)NC(=O)c1cnccn1)B(O)O [Bortezomib] (partner 0.002 µM)
- relative viability (A-427; first compound 0.04 µM): 1.02
- relative viability (A-427; first compound 0.1265 µM): 0.993
- relative viability (A-427; first compound 0.4 µM): 0.952
- relative viability (A-427; first compound 4 µM): 1.03
- relative viability (ABC-1; first compound 0.1265 µM): 0.3
- relative viability (ABC-1; first compound 0.4 µM): 0.304
- relative viability (ABC-1; first compound 4 µM): 0.265
- relative viability (COR-L23; first compound 0.04 µM): 0.975
- relative viability (COR-L23; first compound 0.1265 µM): 0.996
- relative viability (COR-L23; first compound 0.4 µM): 0.984
- relative viability (COR-L23; first compound 4 µM): 0.795
- relative viability (ChaGo-K-1; first compound 0.1265 µM): 1.02
- relative viability (ChaGo-K-1; first compound 0.4 µM): 0.936
- relative viability (ChaGo-K-1; first compound 4 µM): 0.87
- relative viability (EMC-BAC-2; first compound 0.04 µM): 1.07
- relative viability (EMC-BAC-2; first compound 0.1265 µM): 1.1
- relative viability (EMC-BAC-2; first compound 0.4 µM): 1.06
- relative viability (EMC-BAC-2; first compound 4 µM): 0.985
- relative viability (HARA; first compound 0.04 µM): 1.14
- relative viability (HARA; first compound 0.1265 µM): 1.15
- relative viability (HARA; first compound 0.4 µM): 1.09
- relative viability (HARA; first compound 4 µM): 1.05
- relative viability (HCC-15; first compound 0.04 µM): 1
- relative viability (HCC-15; first compound 0.1265 µM): 0.948
- relative viability (HCC-15; first compound 0.4 µM): 1.03
- relative viability (HCC-15; first compound 4 µM): 0.836
- relative viability (HCC-366; first compound 0.04 µM): 0.999
- relative viability (HCC-366; first compound 0.1265 µM): 1.04
- relative viability (HCC-366; first compound 0.4 µM): 1.24
- relative viability (HCC-366; first compound 4 µM): 0.978
- relative viability (HCC-78; first compound 0.04 µM): 0.404
- relative viability (HCC-78; first compound 0.1265 µM): 0.484
- relative viability (HCC-78; first compound 0.4 µM): 0.431
- relative viability (HCC-78; first compound 4 µM): 0.432
- relative viability (LC-2-ad; first compound 0.04 µM): 1.09
- relative viability (LC-2-ad; first compound 0.1265 µM): 0.981
- relative viability (LC-2-ad; first compound 0.4 µM): 0.936
- relative viability (LC-2-ad; first compound 4 µM): 0.847
- relative viability (NCI-H1650; first compound 0.04 µM): 0.221
- relative viability (NCI-H1650; first compound 0.1265 µM): 0.23
- relative viability (NCI-H1650; first compound 0.4 µM): 0.192
- relative viability (NCI-H1650; first compound 4 µM): 0.183
- relative viability (NCI-H1734; first compound 0.04 µM): 1.07
- relative viability (NCI-H1734; first compound 0.1265 µM): 1.04
- relative viability (NCI-H1734; first compound 0.4 µM): 0.927
- relative viability (NCI-H1734; first compound 4 µM): 1.1
- relative viability (NCI-H1993; first compound 0.04 µM): 1.12
- relative viability (NCI-H1993; first compound 0.1265 µM): 1.08
- relative viability (NCI-H1993; first compound 0.4 µM): 0.763
- relative viability (NCI-H1993; first compound 4 µM): 1.01
- relative viability (NCI-H2009; first compound 0.04 µM): 0.982
- relative viability (NCI-H2009; first compound 0.1265 µM): 1.01
- relative viability (NCI-H2009; first compound 0.4 µM): 0.933
- relative viability (NCI-H2009; first compound 4 µM): 0.714
- relative viability (NCI-H2023; first compound 0.04 µM): 1.06
- relative viability (NCI-H2023; first compound 0.1265 µM): 0.969
- relative viability (NCI-H2023; first compound 0.4 µM): 0.783
- relative viability (NCI-H2023; first compound 4 µM): 0.876
- relative viability (NCI-H2228; first compound 0.04 µM): 0.932
- relative viability (NCI-H2228; first compound 0.1265 µM): 0.877
- relative viability (NCI-H2228; first compound 0.4 µM): 0.821
- relative viability (NCI-H2228; first compound 4 µM): 0.523
- relative viability (NCI-H23; first compound 0.04 µM): 1.27
- relative viability (NCI-H23; first compound 0.1265 µM): 1.21
- relative viability (NCI-H23; first compound 0.4 µM): 1.03
- relative viability (NCI-H23; first compound 4 µM): 0.991
- relative viability (NCI-H2405; first compound 0.04 µM): 0.984
- relative viability (NCI-H2405; first compound 0.1265 µM): 0.995
- relative viability (NCI-H2405; first compound 0.4 µM): 0.978
- relative viability (NCI-H2405; first compound 4 µM): 0.994
- relative viability (NCI-H838; first compound 0.04 µM): 0.715
- relative viability (NCI-H838; first compound 0.1265 µM): 0.689
- relative viability (NCI-H838; first compound 0.4 µM): 0.865
- relative viability (NCI-H838; first compound 4 µM): 0.643
- relative viability (SK-LU-1; first compound 0.04 µM): 1.17
- relative viability (SK-LU-1; first compound 0.1265 µM): 1.43
- relative viability (SK-LU-1; first compound 0.4 µM): 1.09
- relative viability (SK-LU-1; first compound 4 µM): 1.13
- relative viability (UMC-11; first compound 0.04 µM): 0.778
- relative viability (UMC-11; first compound 0.1265 µM): 0.693
- relative viability (UMC-11; first compound 0.4 µM): 0.919
- relative viability (UMC-11; first compound 4 µM): 0.543
